Reference: patent US4082751A, “Therapeutic agents” (priority 1976, dated 1978)
Like-named read-outs stand apart in the source and are kept apart here.

Key:
[1] = cited from earlier work
[2] = tested on: reagin-mediated Passive Cutaneous Anaphylaxis (PCA) response; assay: Reagin-mediated rat Passive Cutaneous Anaphylaxis (PCA) screening test; assay type: in vivo, rat (Sprague-Dawley)
Experimental: The reagin-mediated rat Passive Cutaneous Anaphylaxis (PCA) screening test used to evaluate the present compounds is generally regarded as one of the best animal models for use in predicting the antiallergy activity of test compounds in man. Briefly, the method consists of passive sensitization of skin sites on the test animals with reaginic antibodies followed after 24 hours by administration of the test drug and antigen challenge. The allergic response is measured by use of Evans'blue dye and is evaluated by the spot diameter at the injection site. Details of the test are provided below.
Ovalbumin (5 times crystalline) Dinitrobenzene sulfonic acid, Na^+ salt Bordetella pertussis vaccine - phase I 10-20 × 10 ^9 killed organisms/ml. Aluminum hydroxide gel - 10 mg./ml. Potassium carbonate Male Sprague-Dawley (S/D) Rats - 200 gms. Female Sprague-Dawley Rats - 100 gms. Tris Buffered Saline (TBS) - 0.02 M 2-amino-2-hydroxymethyl-1,3-propanediol (Tris), 0.15 M NaCL, pH 8.2
A substituted ovalbumin antigen is used both as immunogen and challenging antigen. The antigen is prepared as follows: 500 mg. ovalbumin (EA) and 500 mg. K2 CO3 are dissolved in 25 ml. distilled H2 O and stirred at room temperature for 5 minutes. Five hundred (500)mg. dinitrobenzene sulfonic acid, Na^+ salt, (previously recrystallized from hot absolute ethanol) is then added slowly with continued stirring. The reaction mixture is then immediately placed in the dark and allowed to proceed for 2 hours with constant stirring. After 2 hours the mixture is placed in suitable dialysis tubing and dialyzed against 5 changes (4 liters each) of distilled H2 O at 5° C. After dialysis the product is lyophilized and stored at room temperature in a brown or amber container. The antigen obtained will appear as a light yellow, amorphous solid which is very soluble in water or saline. It is designated as DNP denatured ovalbumin (DNP-d EA).
Adult, male Sprague-Dawley rats are used as a source of reagin-rich antisera for the PCA model. Immunization is by a combinatin of DNP-d EA on Al(OH) 3 gel and B. pertussis vaccine. Preparation of the DNP-d EA - gel immunogen is as follows: Dissolve the DNP-d EA in TBS so as to give a concentration of 10 mg./ml. Slowly add 1 ml. of this solution to 10 ml. Al(OH) 3 gel (10 mg. solids/ml.) with constant stirring at room temperature. Stir the mixture an additional 30 minutes to insure a uniform adsorption of antigen on gel.
The resulting preparation is then used in combination with phase I B. pertussis vaccine to immunize male S/D rats as follows: For each rat administer 0.1 ml. DNP-d EA - gel suspension intramuscularly in each hind leg (200 μg DNP-d EA and 2 mg. gel total dose). Follow these injections by the intraperitoneal administration of 1.0 ml. B. pertussis vaccine (10-20 × 10 ^9 organisms). The use of light ether anesthesia during this procedure is recommended to insure proper intramuscular and intraperitoneal injections. 9 days following immunization (but no longer than 10) the animals are exsanguinated by cardiac puncture or abdominal aorta cannulation under ether or pentobarbital anesthesia. The collected whole blood is allowed to clot, the serum separated by centrifugation and the individual serum samples stored frozen until assayed for IgE content.
Individual serum samples should be screened for reaginic antibody concentration before being pooled with other sera, as not all rats respond to immunization procedures with reagin production. At 1:50 saline dilution of serum from each immunized rat is used for this purpose. Intradermal injections of 0.05 ml. of the diluted sera are made in the shaven backs of two small female recipient rats, 100-120 gms. Several serum samples can be tested simultaneously in recipient animals. After a 24 to 48 hour latent period antigen challenge is accomplished by intravenous administration to each rat of 1 mg. DNP-d EA in 0.5 ml. 0.5% Evans' blue dye in saline. […]

[3] = water solubility of salts; assay type: physicochemical; conditions: salts of 2-(2-n-propoxyphenyl)-5-(5-1H-tetrazolyl)-pyrimidin-4(3H)-one
[4] = must be administered by inhalation; cited from earlier work
[5] = tested on: release of mediators, e.g. histamine and SRS-A; conditions: administered to asthmatic patients prior to inhalation of specific antigens; cited from earlier work
[6] = bronchodilators, bronchial asthma
[7] = po, 10 min before antigen challenge, read-out: ID50, the dose of compound that inhibits 50% of the response, p.o.
[8] = iv, test compounds 1-5 min before antigen challenge, DSCG at time of challenge, read-out: ID50, the dose of compound that inhibits 50% of the response, iv.

Structure (SMILES) | ED50 [2, 7] | further results
CNC[C@H](O)c1ccc(O)c(O)c1 [epinephrine] |  | undesirable side effects [1, 6]: cardiac stimulation and gastrointestinal distress
COc1ccccc1-c1ncc(-c2nnn[nH]2)c(=O)[nH]1 [Example 6, 2-(2-Methoxyphenyl)-5-(5-1H-tetrazolyl)pyrimidin-4(3H)-one] | ~0.1 mg/kg | 
CN1[C@@H]2CC[C@H]1C[C@@H](OC(=O)C(CO)c1ccccc1)C2 (stereo partly drawn) [atropine] |  | undesirable side effects [1, 6]: cardiac stimulation and gastrointestinal distress
CC(C)Oc1ccccc1-c1ncc(-c2nnn[nH]2)c(=O)[nH]1 [Example 3, 2-(2-Isopropoxyphenyl)-5-(5-1H-tetrazolyl)pyrimidin-4(3H)-one] | ~0.04 mg/kg | 
CCCOc1ccc([N+](=O)[O-])cc1-c1ncc(-c2nnn[nH]2)c(=O)[nH]1 [Example 14, 2-(5-Nitro-2-n-propoxyphenyl)-5-(5-1H tetrazolyl)pyrimidin-4(3H)-one] | 5 mg/kg | 
CCOc1ccccc1-c1ncc(-c2nnn[nH]2)c(=O)[nH]1 [Example 1, 2-(2-Ethoxyphenyl)-5-(5-1H-tetrazolyl)pyrimidin-4-(3H)-one] | 0.09 mg/kg | ED50 [2, 8]: 0.02 mg/kg
CC(C)NCC(O)c1ccc(O)c(O)c1 (stereo not drawn) [isoproterenol] |  | undesirable side effects [1, 6]: cardiac stimulation and gastrointestinal distress
Cn1c(=O)c2[nH]cnc2n(C)c1=O [theophylline] |  | undesirable side effects ([1]; in vivo): cardiac stimulation and gastrointestinal distress
CCCOc1ccc(N(C)C)cc1-c1ncc(-c2nnn[nH]2)c(=O)[nH]1 [Example 16, 2-(5-Dimethylamino-2-n-propoxyphenyl)-5-(5-1H-tetrazolyl)pyrimidin-4(3H)-on] | ~0.4 mg/kg | 
CCCOc1ccccc1-c1ncc(-c2nnn[nH]2)c(=O)[nH]1 [Example 2, 2-(2-n-Propoxyphenyl)-5-(5-1H-tetrazolyl)pyrimidin-4(3H)-one] | 0.04 mg/kg | 
CCCOc1ccccc1-c1ncc(-c2nnn[nH]2)c(=O)[nH]1 [diethanolamine, 2-(2-n-propoxyphenyl)-5-(5-1H-tetrazolyl)-pyrimidin-4(3H)-one] |  | water solubility [3]: water soluble
CCCOc1ccc(N)cc1-c1ncc(-c2nnn[nH]2)c(=O)[nH]1 [Example 15, 2-(5-Amino-2-n-propoxyphenyl)-5-(5-1H-tetrazolyl)pyrimidin-4(3H)-one] | ~0.1 mg/kg | 
CCCOc1ccc(OC)cc1-c1ncc(-c2nnn[nH]2)c(=O)[nH]1 [Example 10, 2-(5-Methoxy-2-n-propoxyphenyl)-5-(5-1H-tetrazolyl)pyrimidin-4(3H)-one] | 0.03 mg/kg | 
O=c1[nH]c(-c2ccccc2OCC2CC2)ncc1-c1nnn[nH]1 [Example 9, 2-(2-Cyclopropylmethoxyphenyl)-5-(5-1H-tetrazolyl)pyrimidin-4(3H)-one] | 0.07 mg/kg | 
O=C(O)c1cc(=O)c2c(OCC(O)COc3cccc4oc(C(=O)O)cc(=O)c34)cccc2o1 [DSCG, disodium cromoglycate] | > 30 mg/kg | oral absorption [4]: not orally absorbed; inhibition of release of mediators [5]: inhibits the release of mediators; ED50 [2, 8]: 0.3 mg/kg; cardiovascular side effects ([1]; in vivo): without cardiovascular side effects
CCC(C)Oc1ccccc1-c1ncc(-c2nnn[nH]2)c(=O)[nH]1 (racemic) [Example 5, (±)-2-(2-sec-Butoxyphenyl)-5-(5-1H-tetrazolyl)pyrimidin-4(3H)-one] | 0.05 mg/kg | 
CCCCOc1ccccc1-c1ncc(-c2nnn[nH]2)c(=O)[nH]1 [Example 4, 2-(2-n-Butoxyphenyl)-5-(5-1H-tetrazolyl)pyrimidin-4(3H)-one] | ~0.07 mg/kg | 
C=CCOc1ccccc1-c1ncc(-c2nnn[nH]2)c(=O)[nH]1 [Example 8, 2-(2-Allyloxyphenyl)-5-(5-1H-tetrazolyl)pyrimidin-4(3H)-one] | 0.24 mg/kg | 
CC(C)COc1ccccc1-c1ncc(-c2nnn[nH]2)c(=O)[nH]1 [Example 7, 2-(2-Isobutoxyphenyl)-5-(5-1H-tetrazolyl)pyrimidin-4(3H)-one] | ~0.1 mg/kg | 
